Laboratory results reported in article PMC8147781, “Discovery of Pyrrolidine-2,3-diones as Novel Inhibitors of P. aeruginosa PBP3” (Antibiotics, 2021).
Values after ≈ are worked out from the molar mass of the structure shown. Values joined by “and” are separate entries in the source; they are usually repeats but may differ in a detail not shown here. Identical values can stand only once.

Columns and labels:
[1] = biological target: T1, PBP3 of P. aeruginosa (PaPBP3) (Pseudomonas aeruginosa, UniProt G3XD46); test: FP-Bocillin FL competition assay; format: binding; settings: 30 min preincubation before Bocillin FL, 37 °C; read-out: IC50 Determination with PaPBP3, FP-Bocillin FL Assay
T1 construct: P. aeruginosa PBP3 (amino acids 40 to 563); His-tag; made in house; host or cells: E. coli BL21 (DE3) Rosetta, plasmid pET41_PBP-3
T1 sequence (G3XD46 40-563): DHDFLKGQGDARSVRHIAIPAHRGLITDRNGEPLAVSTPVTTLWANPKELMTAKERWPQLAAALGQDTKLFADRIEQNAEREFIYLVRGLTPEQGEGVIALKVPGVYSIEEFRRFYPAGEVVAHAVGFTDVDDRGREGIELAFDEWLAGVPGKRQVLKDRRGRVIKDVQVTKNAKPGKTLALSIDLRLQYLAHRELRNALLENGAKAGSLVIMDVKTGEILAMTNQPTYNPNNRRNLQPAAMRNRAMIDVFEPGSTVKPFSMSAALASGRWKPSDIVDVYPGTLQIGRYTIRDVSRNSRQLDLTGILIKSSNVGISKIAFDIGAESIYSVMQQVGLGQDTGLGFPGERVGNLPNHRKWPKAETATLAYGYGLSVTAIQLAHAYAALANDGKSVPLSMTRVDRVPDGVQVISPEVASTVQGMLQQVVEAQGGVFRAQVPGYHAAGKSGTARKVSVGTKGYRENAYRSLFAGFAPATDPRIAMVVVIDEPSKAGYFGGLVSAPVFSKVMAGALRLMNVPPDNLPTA
Procedure: Bocillin FL is a fluorescent penicillin V derivate used as a competitor for PBP inhibitors.
Fluorescence polarisation (FP) experiments were carried out as described before. To determine the binding of Bocillin FL to PBP, 200 nM of ^PaPBP3 was incubated for 30 min with 100 nM of Bocillin FL (Thermo Fisher Scientific, Waltham, MA, USA). The fluorescence polarisation signal of free Bocillin FL was monitored in a Pherastar microplate reader (BMG Labtech, Ortenberg, Germany) in the polarisation mode with Ex/Em: 485/520 nm excitation and emission filters. Millipolarisation (mP) units were calculated using the MARS data analysis software v30.40.R2 (BMG Labtech, Ortenberg, Germany). All the experiments were done in Sorensen buffer at 37 °C using flat-bottom, black 96-well plates. […] Bocillin FL was diluted in Sorensen buffer and added to the reaction and directly measured for 30 min at 37 °C. The FP was continuously measured in the presence and absence of compound and enzyme. […] The estimated IC50 values were established by sigmoidal nonlinear regression, using Prims v.8 software.

[2] = tested on: P. aeruginosa K2896 ΔmexBΔmexXYΔmexCD-oprJ; test: MIC broth microdilution, P. aeruginosa K2896 efflux mutant; format: cell-based, Pseudomonas aeruginosa; settings: ΔmexB; ΔmexX, ΔmexCD-oprJ, with 4 µg/mL PMBN
Source text: (§1) The results presented above implied that seven pyrrolidine-2,3-dione derivatives inhibited the activity of ^PaPBP3 in vitro. Consequently, we were very interested in investigating the potential of these compounds to affect the growth of P. aeruginosa. Two P. aeruginosa bacterial strains (the wild-type PAO1 and the isogenic ΔmexB ΔmexX ΔmexCD-oprJ efflux pump mutant) were used to determine the MIC and the potential role of the main P. aeruginosa efflux systems in compound uptake. To increase the antibacterial sensitivity of the tested P. aeruginosa isolates to the potential inhibitors, we performed MIC experiments in the presence and absence of a sub-MIC concentration (4 µg/mL) of the outer membrane permeabilising polymyxin B nonapeptide (PMBN). […] Thus, we concluded that the physicochemical properties of the pyrrolidine-2,3-dione compounds were perhaps not yet favourable enough to cross the P. aeruginosa cell envelope without a permeabiliser because of their high hydrophobicity.
(§2) The wild-type P.aeruginosa PAO1 and the isogenic P. aeruginosa K2896 ΔmexBΔmexXYΔmexCD-oprJ isolates were used to determine the MIC in the presence and absence of PMBN [48].
(§3) MIC determination was performed via standard broth microdilution according to the Clinical & Laboratory Standards institute guidelines. Overnight colonies grown on BD-Columbia agar with 5% Sheep Blood (Becton Dickinson, Franklin Lakes, NJ, USA), were diluted in Mueller Hinton Broth 2 cation adjusted (MH+) medium (Thermo Fisher Scientific) to a concentration of 5 × 10^5 CFU/mL. Serial dilutions (1:2) of test compounds were incubated at 37 °C with 5 × 10^4 bacteria in a final volume of 100 μL. Sterile and growth controls in the presence of 1% DMSO and PMBN if the case, and the positive controls, aztreonam (AZT) and tigecycline (TIG) were included in the experiments (Table S4). The MICs were determined visually after 18 h at 37 °C and confirmed by the addition of 10% PrestoBlue (ThermoFisher Scientific) reagent according to the manufacture’s protocol. The fluorescence signal of PrestoBlue reagent was measured at Ex/Em: 550/595 nm after 30 min incubation at 37 °C using at a ClarioStar microplate reader (BMG Labtech). PrestoBlue reduction occurs in the presence of living cells and consequently turns red in colour and is highly fluorescent.

E. coli Neumann = test: MIC broth microdilution, E. coli; format: cell-based; settings: Escherichia coli; Table S3; read-out: MIC (µM) E. coli Neumann
Procedure: as §3

B. subtilis 168 = test: MIC broth microdilution, B. subtilis; format: cell-based; settings: Bacillus subtilis, 168; Table S3
Procedure: as §3

[3] = tested on: Hep G2, epithelial liver cell line; test: Cytotoxicity assay (PrestoBlue), HepG2; settings: CC50, 72 h
Procedure: We finally tested the cytotoxicity of the compounds against four eukaryotic cell lines (Table 2 and Table S5), NRK-52E, an epithelial kidney cell line of Rattus norvegicus; Hep G2, an human epithelial liver cell line; and two suspension cell lines: CCRF-CEM, a T lymphoblast; and H9, a cutaneous T lymphocyte cell line.
Cell lines stored at −120 °C were thawed to 37 °C and resuspended in 10 mL of medium pre-warmed to 37 °C. Cells were pelleted at 300× g for 10 min, and then resuspended in fresh medium, seeded in a T-75 culture flask, and placed in a CO2 incubator (37 °C with 5% CO2 tension). Once the cells reached approximately 70–80% confluency, they were then passaged regularly. The adherent cell lines NRK52E, HepG2 and Huh 7 were washed once with 10 mL DPBS and detached with Trypsin-EDTA for 5 to 7 min and resuspended in 15 mL of the appropriate medium. The suspension cell line CCRF-CEM were diluted and resuspended in fresh RPMI 1640 PAN medium. To calculate the cell density, the cell resuspensions were diluted 1:6 with DPBS. Equal volumes of cell suspension and Trypan Blue were mixed and gently loaded into a haemocytometer (INCYTO, 31056 Republic of Korea). In each experiment, cell concentrations were adjusted to reach a concentration of 2.5 × 10^3 cell/well for NRK52E, 5 × 10^3 cell/well for HepG2, 6.2 × 10^4 cell/well for CCRF-CEM and 3 × 10^3 for H9. The cells were incubated with decreasing concentration of compounds (1 µL in 96% DMSO) for 72 h at 37 °C with 5% CO2 tension. Cycloheximide, a cytotoxic compound that interferes with the translocation step in eukaryotic protein synthesis was used as a control for the experiments. The assay was carried out in flat-bottom, transparent 96-well plates. Cell viability was determined using the PrestoBlue reagent (Thermo Fisher Scientific, Waltham, MA, USA) according to the manufacture’s protocol. First, 10× PrestoBlue was added to each well to obtain a 1× solution, and incubated at 37 °C for 45 min. Then, fluorescence was measured at Ex/Em: 550/595 nm using a ClarioStar microplate reader (BMG Labtech). Cytotoxicity was determined as the percentage of the difference in absorbance of the untreated sample to the treated sample. CC50 was calculated using the values obtained in each concentration using the sigmoidal dose-response by Prism v.8. The media used in each cell line is detailed in Table S6.

[4] = tested on: P. aeruginosa PAO1 (wild-type strain); test: MIC broth microdilution, P. aeruginosa PAO1; format: cell-based, Pseudomonas aeruginosa; settings: wild-type strain, with 4 µg/mL PMBN
Source text: as §1, §2, §3

SMILES | IC50 [1] | MIC (µM) against P. aeruginosa K28926 [2] [µM] | MIC (E. coli Neumann) [µM] | MIC (B. subtilis 168) [µM] | Cytotoxicity effect (µM) Epithelial liver HepG2 [3] [µM] | MIC (µM) against P. aeruginosa PAO1 [4] [µM]
O=C(C1=C(O)C(=O)N(Cc2cccc(F)c2)C1c1ccc(Cl)cc1)c1ccc(Br)cc1 (stereo not drawn) [Compound 1] | 7 ± 3 µM | 12.5 (≈ 6.26 µg/mL) | > 100 | > 100 | > 100 | –
CCNC1=C(C(=O)c2ccc(Br)cc2)C(c2ccc(Cl)cc2)N(Cc2cccc(F)c2)C1=O (stereo not drawn) [Compound 43, 4-(4-bromobenzoyl)-5-(4-chlorophenyl)-3-(ethylamino)-1-[(3-fluorophenyl)methyl]-5H-pyrrol-2-one] | > 100 µM | >100 | > 100 | > 100 | > 100 | >100
O=C(C1=C(O)C(=O)N(Cc2cscn2)C1c1ccc(Cl)cc1)c1ccc(Br)cc1 (stereo not drawn) [Compound 42] | > 100 µM | >100 | > 100 | > 100 | > 100 | >100
O=C(C1=C(O)C(=O)N(CCc2c[nH]c3ccccc23)C1c1ccc(Cl)cc1)c1ccc(Br)cc1 (stereo not drawn) [Compound 40] | 4 ± 2 µM | – | > 100 | > 100 | > 100 | –
O=C(C1=C(O)C(=O)N(Cc2cc3cc(Cl)ccc3[nH]2)C1c1ccc(Cl)cc1)c1ccc(Br)cc1 (stereo not drawn) [Compound 35] | 2 µM and 0.6 µM | – | > 100 | 6.25 (≈ 3.48 µg/mL) | > 100 | –
O=C(C1=C(O)C(=O)N(Cc2cc3ccccc3[nH]2)C1c1ccc(Cl)cc1)c1ccc(Br)cc1 (stereo not drawn) [Compound 34, 4-(4-bromobenzoyl)-5-(4-chlorophenyl)-3-hydroxy-1-(1H-indol-2-ylmethyl)-5H-pyrrol-2-one] | 4 ± 4 µM | – | > 100 | 25 (≈ 13 µg/mL) | > 100 | –
O=C(C1=C(O)C(=O)N(CCc2cc3ccccc3[nH]2)C1c1ccc(Cl)cc1)c1ccc(Br)cc1 (stereo not drawn) [Compound 37] | 17 ± 3 µM | – | > 100 | 3.13 (≈ 1.68 µg/mL) | 20 ± 4 | –
